Laboratory results published in the NIST ThermoML archive (doi:10.1021/je060271a).

Settings: 283.15 K, Liquid, Vibrating tube method

CCCCCC(=O)OCC(COC(=O)CCCCC)(COC(=O)CCCCC)COC(=O)CCCCC [pentaerythritol tetrahexanoate]
Settings | mass density [kg/m3]
7124.1 kPa | 1008.3
7135 kPa | 1008.3
7146.2 kPa | 1008.3
7159.7 kPa | 1008.3
7170.9 kPa | 1008.3
7182 kPa | 1008.3
7193.4 kPa | 1008.3
7206.5 kPa | 1008.3
7217.2 kPa | 1008.4
7228.4 kPa | 1008.3
7241.6 kPa | 1008.4
7252.8 kPa | 1008.4
7264.2 kPa | 1008.4
7277.8 kPa | 1008.3
7289 kPa | 1008.4
7300.4 kPa | 1008.3
7311.8 kPa | 1008.3
7323.4 kPa | 1008.3
7336.9 kPa | 1008.4
7348.4 kPa | 1008.4
7360.2 kPa | 1008.3
7373.8 kPa | 1008.5
7385.4 kPa | 1008.3
7396.9 kPa | 1008.4
7408.7 kPa | 1008.5
7422.7 kPa | 1008.5
7434.6 kPa | 1008.5
7446.5 kPa | 1008.5
7458.6 kPa | 1008.5
7472.7 kPa | 1008.5
7484.8 kPa | 1008.6
7496.7 kPa | 1008.4
7508.6 kPa | 1008.6
7523.2 kPa | 1008.5
7534.9 kPa | 1008.5
7547.3 kPa | 1008.6
7561.6 kPa | 1008.5
7573.6 kPa | 1008.5
7586 kPa | 1008.5
7598.2 kPa | 1008.6
7613.2 kPa | 1008.4
7625.9 kPa | 1008.6
7637.9 kPa | 1008.6
7650.7 kPa | 1008.5
7665 kPa | 1008.6
7678 kPa | 1008.5
7690.4 kPa | 1008.6
7705.3 kPa | 1008.7
7717.7 kPa | 1008.6
7730.5 kPa | 1008.7
7742.7 kPa | 1008.6
7758.4 kPa | 1008.7
7771.4 kPa | 1008.7
7784.3 kPa | 1008.7
7798.4 kPa | 1008.5
7811.2 kPa | 1008.7
7826.7 kPa | 1008.7
7839.6 kPa | 1008.8
7852.8 kPa | 1008.8
7866 kPa | 1008.8
7881.9 kPa | 1008.7
7895 kPa | 1008.7
7908.3 kPa | 1008.7
7924.2 kPa | 1008.7
7937.3 kPa | 1008.7
7950.8 kPa | 1008.6
7967.7 kPa | 1008.7
7978.6 kPa | 1008.7
7994.5 kPa | 1008.8
8008.3 kPa | 1008.8
8022.4 kPa | 1008.7
8036.2 kPa | 1008.9
8052.3 kPa | 1008.8
8065.9 kPa | 1008.8
8080.1 kPa | 1008.9
8094.4 kPa | 1008.8
8110.8 kPa | 1008.9
8125.1 kPa | 1008.8
8139.2 kPa | 1008.8
8153.4 kPa | 1008.9
8167.7 kPa | 1008.8
8184.9 kPa | 1008.9
8199.1 kPa | 1008.8
8213.4 kPa | 1008.9
8230.8 kPa | 1008.9
8245.5 kPa | 1008.9
8259.8 kPa | 1008.8
8274.5 kPa | 1009
8291.9 kPa | 1008.9
8306.6 kPa | 1009
8320.7 kPa | 1009
8335.5 kPa | 1009.1
8385.6 kPa | 1009
8400.7 kPa | 1009
8415.4 kPa | 1009.1
8430.1 kPa | 1009
8447.5 kPa | 1009
8463 kPa | 1009
8478 kPa | 1009.1
8496.3 kPa | 1009.1
8511.3 kPa | 1009
8529.1 kPa | 1009.1
8544.6 kPa | 1009.1
8560.6 kPa | 1009.1
8576.2 kPa | 1009.1
8594.8 kPa | 1009.1
8609.8 kPa | 1009.2
8625.5 kPa | 1009.1
8644.3 kPa | 1009.3
8659.6 kPa | 1009.2
8678.4 kPa | 1009.2
8694.4 kPa | 1009.1
8710.5 kPa | 1009.1
8729.5 kPa | 1009.2
8745.1 kPa | 1009.1
8761.5 kPa | 1009.1
8778.1 kPa | 1009.3
8797.7 kPa | 1009.2
8813.6 kPa | 1009.3
8833.4 kPa | 1009.1
8849.8 kPa | 1009.3
8865.8 kPa | 1009.3
8882.4 kPa | 1009.2
8902.4 kPa | 1009.2
8919.1 kPa | 1009.3
8935.3 kPa | 1009.3
8955.5 kPa | 1009.4
8972.2 kPa | 1009.2
8992.6 kPa | 1009.4
9009.6 kPa | 1009.3
9026.7 kPa | 1009.4
9043.4 kPa | 1009.5
9063.8 kPa | 1009.4
9081 kPa | 1009.3
9098.4 kPa | 1009.5
9118.9 kPa | 1009.4
9136.1 kPa | 1009.4
9156.6 kPa | 1009.4
9173.7 kPa | 1009.4
9191.1 kPa | 1009.5
9212.2 kPa | 1009.5
9230.4 kPa | 1009.5
9249.2 kPa | 1009.5
9266.9 kPa | 1009.5
